Measured values published in paper PMC4336331, “Novel Receptor-Derived Cyclopeptides to Treat Heart Failure Caused by Anti-β1-Adrenoceptor Antibodies in a Human-Analogous Rat Model” (PLoS ONE, 2015).
Where two headings read alike, the source gives them in different places. Peptide text beside a SMILES is read from it.

Experiments:
[1] = tested on: anti-β1EC2-induced heart failure (β1EC2/GST-FP-immunised rats); assay: Left heart catheterisation (haemodynamics), prevention-study; format: in vivo, Lewis/CrlBR rats; details: LV catheterisation month 16, mean ±SEM
Experimental: (§1) In brief, n = 76 two months old Lewis/CrlBR rats were either s.c. immunised with 50 μg β1EC2/GST-FP, or n = 38 rats were control-injected with 0.9% NaCl (t = 0). To maintain high anti-β1EC2-titers, all immunised rats were boosted with β1EC2/GST-FP (or 0.9% NaCl) every month over 20 months as previously described. Application of the different linear or cyclic β1-AR peptides (corresponding to the primary AA-sequence of either the first (β1EC1) or the 2nd extra-cellular β1-AR loop (β1EC2)) or the β1-receptor blocker bisoprolol was initiated either 6 weeks after the 1st immunisation (i.e. 15 days after the 1st boost, prevention-study), or 8.5 months after the 1st immunisation (therapy-study).

[2] = tested on: anti-β1EC2-induced heart failure (β1EC2/GST-FP-immunised rats); assay: Relative organ wet weights and body weight, therapy-study; details: month 20, mean ±SEM
Experimental: as §1
After the hearts all other relevant inner organs (e.g., lung, liver, spleen, kidneys, brain, and eyes) were removed, rinsed with ice-cold PBS, weighed, sectioned, and fixed for further histologic analysis.

[3] = tested on: anti-β1EC2-induced heart failure (β1EC2/GST-FP-immunised rats); assay: Left heart catheterisation (haemodynamics), therapy-study; format: in vivo, Lewis/CrlBR rats; details: LV catheterisation month 20, mean ±SEM
Experimental: as §1

[4] = tested on: anti-β1EC2-induced heart failure (β1EC2/GST-FP-immunised rats); details: therapy-study, end of study, mean ±SEM
Experimental: as §1
From paraffin-embedded heart preparations cavity- and wall-dimensions were determined by computer-aided analysis of H&E-stained mid-ventricular 2μm-sections as previously described. H&E-stained paraffin-sections also served to quantify damaged and fibrotic cardiac areas (scars). For detection of mast cells, deparaffinised cardiac sections were stained with acidified (pH<2.5) toluidine blue 0.1% (Sigma). The number of toluidine-positive cells was normalized to square millimeter of cardiac tissue. TUNEL-positive cells were quantified in 2μm mid-ventricular paraffin-sections using a TMR Red in Situ Death Detection Kit (Roche, Basel, Switzerland). Only the total number of TUNEL-postive cells/section was determined without further differentiation of the specific apoptotic cell type (e.g., fibroblasts, endothelial cells, cardiomyocytes).

anti-β1EC2-antibodies = assay: Free anti-β1EC2-titers by ELISA, therapy-study; format: in vivo, Lewis/CrlBR rats; details: for effect on anti-β1EC2-titers, in words: peptides 1.0 mg/kg/month i.v., bisoprolol 15 mg/kg/day orally (S1 Fig., Fig. 2F); for decline in anti-β1EC2-titers: 1.0 mg/kg i.v. every 4 weeks, irrespective of bisoprolol co-treatment (Fig. 2F)
Experimental: as §1
(TIF) Click here for additional data file.

[5] = tested on: anti-β1EC2-induced heart failure (β1EC2/GST-FP-immunised rats); assay: Echocardiography and catheterisation, cardiomyopathic phenotype, therapy-study; format: in vivo, Lewis/CrlBR rats; details: echocardiography and catheterisation (Fig. 2G, H; S2 Fig.)
Experimental: as §1
(§2) In brief, the rats were lightly anaestetised (30 mg/kg ketamine-HCl and 5 mg/kg xylazine i.p.), shaved (chest), and placed supine on a special table. M-mode tracings were recorded at baseline (before immunisation), and subsequently every four months in the parasternal long and short axis views according to the guidelines of the American Society for Echocardiography. Pulsed-wave Doppler spectra were recorded from the apical five-chamber view and the velocity-time integral (VTI) of the transaortic flow served to calculate cardiac output (CO [ml/min] = Aortic VTI x (π [LV-outflow tract diameter/2]^2) x bpm).

[6] = tested on: anti-β1EC2-induced heart failure (β1EC2/GST-FP-immunised rats); assay: Echocardiography, catheterisation and histomorphology, prevention-study; format: in vivo, Lewis/CrlBR rats; details: cardiac catheterisation, histomorphology
Experimental: as §1, §2

[7] = immunised anti-β1EC2-positive rats, from 6 weeks after 1st immunisation EC2-CP 1.0 mg/kg i.v. every 4 weeks or bisoprolol 15 mg/kg/day orally over 12 months
[8] = non-immunised 0.9% NaCl-injected rats, EC2-CP 1.0 mg/kg i.v. every 4 weeks or bisoprolol 15 mg/kg/day orally over 12 months
[9] = immunised anti-β1EC2-positive rats, from 8.5 months after 1st immunisation peptides 1.0 mg/kg i.v. every 4 weeks, bisoprolol 15 mg/kg/day orally, over 12 months

Compound: CC(C)NCC(O)COc1ccc(COCCOC(C)C)cc1 (stereo not shown) [bisoprolol, reference compound]
- +dP/dt (contractilility) [1, 7]: 6768 ±106 mmHg/s
- -dP/dt (relaxation) [1, 7]: 5532 ±78 mmHg/s
- HF (heart frequence) [1, 7]: 178 ±9 bpm
- LVEDP (LV end-diastolic pressure) [1, 7]: 8.3 ±0.6 mmHg
- LVSP (maximal systolic LV-pressure) [1, 7]: 106 ±3 mmHg
- +dP/dt (contractilility) [1, 8]: 7012 ±419 mmHg/s
- -dP/dt (relaxation) [1, 8]: 5619 ±155 mmHg/s
- HF (heart frequence) [1, 8]: 173 ±17 bpm
- LVEDP (LV end-diastolic pressure) [1, 8]: 10.6 ±1.5 mmHg
- LVSP (maximal systolic LV-pressure) [1, 8]: 107 ±11 mmHg
- Heart, relative (wet) weight [2, 9]: 2.93 ± 0.11 mg/g
- Liver, relative (wet) weight [2, 9]: 21.61 ± 1.47 mg/g
- Lung, relative (wet) weight [2, 9]: 2.88 ± 0.10 mg/g
- +dP/dt (contractilility) [3, 9]: 5697 ± 231 mmHg/s
- -dP/dt (relaxation) [3, 9]: 4238 ± 117 mmHg/s
- HF (heart frequence) [3, 9]: 173 ± 3 bpm
- LVEDP (LV end-diastolic pressure) [3, 9]: 10.9 ± 1.3 mmHg
- LVSP (maximal systolic LV-pressure) [3, 9]: 108 ± 2 mmHg
- +dP/dt (contractilility) [3, 8]: 6018 ±308 mmHg/s
- -dP/dt (relaxation) [3, 8]: 4646 ± 295 mmHg/s
- HF (heart frequence) [3, 8]: 168 ± 6 bpm
- LVEDP (LV end-diastolic pressure) [3, 8]: 9.7 ± 0.9 mmHg
- LVSP (maximal systolic LV-pressure) [3, 8]: 104 ± 4 mmHg
- IVS (thickness of the inter-ventricular septum) [4, 9]: 1.7 ±0.1 mm
- LVA (total LV-area) [4, 9]: 61.9 ±5.2 mm2
- LVCA (LV-cavity area) [4, 9]: 26.8 ±1.0 mm2
- LVWA (LV wall area) [4, 9]: 35.0 ±4.5 mm2
- PW (posterior wall thickness) [4, 9]: 1.5 ±0.1 mm
- IVS (thickness of the inter-ventricular septum) [4, 8]: 1.8 ±0.1 mm
- LVA (total LV-area) [4, 8]: 58.4 ±0.7 mm2
- LVCA (LV-cavity area) [4, 8]: 22.6 ±0.2 mm2
- LVCA / LVA % [4, 8]: 38.7 ±0.5%
- LVWA (LV wall area) [4, 8]: 35.8 ±0.5 mm2
- PW (posterior wall thickness) [4, 8]: 1.8 ±0.1 mm
- effect on anti-β1EC2-titers, in words (anti-β1EC2-antibodies): no effect
- cardiomyopathic phenotype, in words [5]: only stopped further disease-progression
- development of cardiomyopathy and heart failure, in words [6]: able to prevent development of cardiomyopathy and heart failure

Compound: CC(C)[C@@H]1NC(=O)[C@H](Cc2ccccc2)NC(=O)[C@H](CC(=O)O)NC(=O)[C@H](CS)NC(=O)[C@H](CS)NC(=O)[C@H](CCCCN)NC(=O)[C@@H]2CCCN2C(=O)[C@H](CC(=O)O)NC(=O)[C@H](CC(N)=O)NC(=O)[C@H](Cc2ccc(O)cc2)NC(=O)[C@H](CS)NC(=O)[C@H](CCCNC(=N)N)NC(=O)[C@H](CCCNC(=N)N)NC(=O)[C@H](C)NC(=O)[C@H](CCC(=O)O)NC(=O)[C@H](CC(=O)O)NC(=O)[C@H](CO)NC(=O)[C@H](CCC(=O)O)NC(=O)[C@H](C)NC(=O)[C@H](CCCNC(=N)N)NC(=O)[C@H](C)NC(=O)[C@H](CCC(N)=O)NC(=O)CNC(=O)[C@H](CCCNC(=N)N)NC(=O)[C@H](CC(N)=O)NC(=O)[C@H]([C@@H](C)O)NC1=O [β1EC2-CP] (cyclo(AESDEARRCYNDPKCCDFVTNRGQAR))
- -dP/dt (relaxation) [1, 7]: 5887 ±93 mmHg/s
- HF (heart frequence) [1, 7]: 226 ±5 bpm
- LVEDP (LV end-diastolic pressure) [1, 7]: 10.4 ±0.6 mmHg
- LVSP (maximal systolic LV-pressure) [1, 7]: 127 ±4 mmHg
- -dP/dt (relaxation) [1, 8]: 5986 ±288 mmHg/s
- HF (heart frequence) [1, 8]: 232 ±7 bpm
- LVEDP (LV end-diastolic pressure) [1, 8]: 10.1 ±1.4 mmHg
- LVSP (maximal systolic LV-pressure) [1, 8]: 135 ±7 mmHg
- Heart, relative (wet) weight [2, 9]: 2.20 ± 0.09 mg/g
- Kidney L, relative (wet) weight [2, 9]: 2.29 ± 0.06 mg/g
- Kidney R, relative (wet) weight [2, 9]: 2.25 ± 0.05 mg/g
- Liver, relative (wet) weight [2, 9]: 19.83 ± 0.50 mg/g
- Lung, relative (wet) weight [2, 9]: 2.26 ± 0.16 mg/g
- Spleen, relative (wet) weight [2, 9]: 1.23 ± 0.04 mg/g
- Weight (body weight) [2, 9]: 673 ± 12 g
- Heart, relative (wet) weight [2, 8]: 2.15 ± 0.08 mg/g
- Kidney L, relative (wet) weight [2, 8]: 2.19 ± 0.08 mg/g
- Kidney R, relative (wet) weight [2, 8]: 2.22 ± 0.08 mg/g
- Liver, relative (wet) weight [2, 8]: 18.9 ± 0.55 mg/g
- Lung, relative (wet) weight [2, 8]: 2.08 ± 0.07 mg/g
- Spleen, relative (wet) weight [2, 8]: 1.18 ± 0.03 mg/g
- Weight (body weight) [2, 8]: 695 ± 27 g
- -dP/dt (relaxation) [3, 9]: 5228 ±166 mmHg/s
- HF (heart frequence) [3, 9]: 217 ±3 bpm
- LVEDP (LV end-diastolic pressure) [3, 9]: 10.0 ± 1.0 mmHg
- LVSP (maximal systolic LV-pressure) [3, 9]: 126 ±4 mmHg
- -dP/dt (relaxation) [3, 8]: 5502 ±248 mmHg/s
- HF (heart frequence) [3, 8]: 221 ±7 bpm
- LVEDP (LV end-diastolic pressure) [3, 8]: 9.2 ± 1.1 mmHg
- LVSP (maximal systolic LV-pressure) [3, 8]: 121 ±8 mmHg
- IVS (thickness of the inter-ventricular septum) [4, 9]: 1.7 ±0.1 mm
- LVA (total LV-area) [4, 9]: 65.2 ±2.5 mm2
- LVCA (LV-cavity area) [4, 9]: 25.6 ±1.0 mm2
- LVWA (LV wall area) [4, 9]: 39.6 ±1.7 mm2
- PW (posterior wall thickness) [4, 9]: 1.8 ±0.1 mm
- IVS (thickness of the inter-ventricular septum) [4, 8]: 1.7 ±0.1 mm
- LVA (total LV-area) [4, 8]: 57.4 ±0.7 mm2
- LVCA (LV-cavity area) [4, 8]: 21.3 ±0.1 mm2
- LVWA (LV wall area) [4, 8]: 36.1 ±0.7 mm2
- PW (posterior wall thickness) [4, 8]: 1.9 ±0.1 mm
- decline in anti-β1EC2-titers (anti-β1EC2-antibodies; after 4–5 injections): > 90%
- decline in anti-β1EC2-titers (anti-β1EC2-antibodies; after two injections): > 70%
- steady state antibody-levels in % of the titers at initiation of therapy (anti-β1EC2-antibodies; despite monthly antigen-boosts): less than 15%
- cardiomyopathic phenotype, in words [5]: almost fully reversed
- development of cardiomyopathy and heart failure, in words [6]: able to prevent development of cardiomyopathy and heart failure

Compound: CC(C)[C@H](NC(=O)[C@H](Cc1ccccc1)NC(=O)[C@H](CC(=O)O)NC(=O)[C@H](CS)NC(=O)[C@H](CS)NC(=O)[C@H](CCCCN)NC(=O)[C@@H]1CCCN1C(=O)[C@H](CC(=O)O)NC(=O)[C@H](CC(N)=O)NC(=O)[C@H](Cc1ccc(O)cc1)NC(=O)[C@H](CS)NC(=O)[C@H](CCCNC(=N)N)NC(=O)[C@H](CCCNC(=N)N)NC(=O)[C@H](C)NC(=O)[C@H](CCC(=O)O)NC(=O)[C@H](CC(=O)O)NC(=O)[C@H](CO)NC(=O)[C@H](CCC(=O)O)NC(=O)[C@H](C)NC(=O)[C@H](CCCNC(=N)N)NC(=O)[C@H](C)N)C(=O)N[C@H](C(=O)N[C@@H](CC(N)=O)C(=O)N[C@@H](CCCNC(=N)N)C(=O)NCC(N)=O)[C@@H](C)O [β1EC2-Lin] (H-ARAESDEARRCYNDPKCCDFVTNRG-NH2; N-terminus and C-terminus assumed)
- Heart, relative (wet) weight [2, 9]: 2.88 ± 0.24 mg/g
- Kidney L, relative (wet) weight [2, 9]: 2.32 ± 0.14 mg/g
- Kidney R, relative (wet) weight [2, 9]: 2.36 ± 0.20 mg/g
- Liver, relative (wet) weight [2, 9]: 22.64 ± 0.59 mg/g
- Lung, relative (wet) weight [2, 9]: 2.77 ± 0.12 mg/g
- Spleen, relative (wet) weight [2, 9]: 1.49 ± 0.09 mg/g
- Weight (body weight) [2, 9]: 598 ± 38 g
- -dP/dt (relaxation) [3, 9]: 4857 ±157 mmHg/s
- HF (heart frequence) [3, 9]: 210 ±6 bpm
- LVEDP (LV end-diastolic pressure) [3, 9]: 14.5 ±1.2 mmHg
- LVSP (maximal systolic LV-pressure) [3, 9]: 116 ±4 mmHg
- IVS (thickness of the inter-ventricular septum) [4, 9]: 1.5 ±0.1 mm
- LVA (total LV-area) [4, 9]: 71.2 ±3.5 mm2
- LVCA (LV-cavity area) [4, 9]: 32.7 ±1.3 mm2
- LVWA (LV wall area) [4, 9]: 38.5 ±2.4 mm2
- PW (posterior wall thickness) [4, 9]: 1.6 ±0.1 mm
- effect on anti-β1EC2-titers, in words (anti-β1EC2-antibodies): only negligible effects
- cardiomyopathic phenotype, in words [5]: failed to elicit any cardiopotective effects
